Reference: patent US20240260575A1, “AGRICULTURAL AND HORTICULTURAL FUNGICIDAL COMPOSITION” (Nippon Soda Co., Ltd., priority 2021, published 2024)

Tests used:
[1] = tested on: cucumber powdery mildew pathogen (Sphaerotheca fuliginea); test: Cucumber powdery mildew control test; format: in vivo; design: scale not given here
From the text: (Test Example) Cucumber Powdery Mildew Control Test 1) Preparation of Drug Solution for Test […] The other components (II) were each formulated into an aqueous solution or suspension having a predetermined concentration. 2) Test A mixed solution of a component (I) and a component (II) at a predetermined concentration was sprayed onto cucumber seedlings (variety: “Shimo-shirazu, creeping type”, cotyledon stage). After natural drying at room temperature, conidiospores of a cucumber powdery mildew pathogen (Sphaerotheca fuliginea) were inoculated by blushing off, and the seedlings were kept in a thermostatic room at 20° C. using a 12 hour light/dark cycle for 7 to 10 days. The states of lesion development on leaves were examined by comparing with that for the untreated case, and the control values were determined. The test was duplicately carried out. The results are shown in Tables 8 to 12 together with expected values calculated as follows. Expected values were calculated by using Colby's equation: […] Here, E denotes an expected value of a control value, M denotes a control value in using a component (I) alone, and N denotes a control value in using a component (II) alone. If the actually measured control value of a composition of a component (I) and a component (II) is higher than the expected value, E, the composition of a component (I) and a component (II) is said to have exerted synergistic effect.

[2] = tested on: gray mold pathogen (Botrytis cinerea); test: Gray mold antimicrobial test (growth inhibition rate); format: cell-based; design: growth inhibition rate, component (II) alone: concentration or dose not given beside the values
Experimental: (Test Example) Gray Mold Antimicrobial Test (Growth Inhibition Rate)
Conidiospores of a gray mold pathogen (Botrytis cinerea) were added to and dispersed in a yeast extract sucrose medium, and a component (I) and a component (II) dissolved in dimethyl sulfoxide at predetermined concentrations were further added and mixed thereto, and the resulting solution was dispensed onto a 96-well microplate and cultivated in the dark at 20° C. for 3 to 5 days. After the cultivation, the turbidity at a wavelength of 405 nm was measured by a microplate reader and compared with that in the untreated case to determine the growth inhibition rate (%) for the gray mold pathogen. The test was duplicately carried out. The results are shown in Tables 3 to 7 together with expected values calculated as follows.
Expected values were calculated by using Colby's equation: E=M+N−MN/100. Here, E denotes an expected value (%) of a growth inhibition rate, M denotes a growth inhibition rate (%) in using a component (I) alone, and N denotes a growth inhibition rate (%) in using a component (II) alone.
If the actually measured growth inhibition rate (%) of a composition of a component (I) and a component (II) is higher than the expected value, E, the composition of a component (I) and a component (II) is said to have exerted synergistic effect.

[3] = Table 8, ppm or dilution rate: Thiophanate-methyl 1.6, Triflumizole 25, Cyflufenamid 1.6, Iminoctadine acetate 0.25, Iminoctadine albesilate 1, Picarbutrazox 2000, Ipflufenoquin 1, Bacillus subtilis ×250, Pseudomonas rhodesiae ×2000, Sodium hydrogen carbonate 250, Potassium bicarbonate 250, Orange oil 4000, Linalool 4000, Thymol 100, Neem oil 2000, Prothioconazole 1.6, Mancozeb 63, Mineral oil 500
[4] = Table 9, ppm or dilution rate: Thiophanate-methyl 1.6, Triflumizole 25, Cyflufenamid 1.6, Iminoctadine acetate 0.25, Iminoctadine albesilate 1, Picarbutrazox 2000, Ipflufenoquin 1, Bacillus subtilis ×250, Pseudomonas rhodesiae ×2000, Sodium hydrogen carbonate 250, Potassium bicarbonate 250, Orange oil 1000, Linalool 4000, Thymol 100, Neem oil 2000, Prothioconazole 1.6, Mancozeb 63, Mineral oil 500
[5] = Table 10, ppm or dilution rate: Thiophanate-methyl 1.6, Triflumizole 25, Cyflufenamid 1.6, Iminoctadine acetate 0.25, Iminoctadine albesilate 1, Picarbutrazox 2000, Ipflufenoquin 1, Bacillus subtilis ×1000, Pseudomonas rhodesiae ×2000, Sodium hydrogen carbonate 250, Potassium bicarbonate 250, Orange oil 1000, Linalool 4000, Thymol 100, Neem oil 2000, Prothioconazole 1.6, Mancozeb 63, Mineral oil 5
[6] = Table 11, ppm or dilution rate: Thiophanate-methyl 1.6, Triflumizole 25, Cyflufenamid 1.6, Iminoctadine acetate 1, Iminoctadine albesilate 1, Picarbutrazox 2000, Ipflufenoquin 1, Bacillus subtilis ×1000, Pseudomonas rhodesiae ×2000, Sodium hydrogen carbonate 250, Potassium bicarbonate 250, Orange oil 1000, Linalool 4000, Thymol 100, Neem oil 2000, Prothioconazole 1.6, Mancozeb 63, Mineral oil 500
[7] = Table 12, ppm or dilution rate: Thiophanate-methyl 1.6, Triflumizole 25, Cyflufenamid 1.6, Iminoctadine acetate 0.25, Iminoctadine albesilate 1, Picarbutrazox 2000, Ipflufenoquin 1, Bacillus subtilis ×1000, Pseudomonas rhodesiae ×2000, Sodium hydrogen carbonate 1000, Potassium bicarbonate 250, Orange oil 1000, Linalool 4000, Thymol 400, Neem oil 2000, Prothioconazole 1.6, Mancozeb 63, Mineral oil
[8] = Table 3, ppm: Ipflufenoquin 10, Cyflufenamid 10, Thiophamate-methyl 0.4, Iminoctadine acetate 0.08, Iminoctadine albesilate 0.08, Triflumizole 0.0032, Picarbutrazox 0.08, Prothioconazole 0.0032, Mefentrifluconazole 0.00064, Cymoxanil 10, Fludioxonil 0.016, Metyltetraprole 0.4, Florylpicoxamid 0.08, Fluxapyroxad 0.08, Fluopyram 0.4, Potassium phosphite 10, Fipronil 2, Chlorantraniliprole 0.016, Aba
[9] = Table 4, ppm: Ipflufenoquin 10, Cyflufenamid 2, Thiophamate-methyl 0.4, Iminoctadine acetate 0.08, Iminoctadine albesilate 0.4, Picarbutrazox 10, Prothioconazole 0.0032, Mefentrifluconazole 0.0006, Cymoxanil 10, Fludioxonil 0.016, Metyltetraprole 10, Fluxapyroxad 0.016, Fluopyram 0.4, Potassium phosphite 10, Fipronil 2, Chlorantraniliprole 0.016, Abamectin 0.016, Sulfoxaflor 10, Tebufenozide 0.016
[10] = Table 5, ppm: Ipflufenoquin 10, Cyflufenamid 10, Thiophamate-methyl 0.4, Iminoctadine albesilate 0.4, Picarbutrazox 0.0032, Mefentrifluconazole 0.0006, Cymoxanil 10, Captan 0.0032, Fludioxonil 0.016, Metyltetraprole 10, Florylpicoxamid 0.0001, Fluxapyroxad 0.016, Fluopyram 0.0032, Potassium phosphite 0.08, Fipronil 2, Chlorantraniliprole 0.016, Abamectin 0.4, Sulfoxaflor 0.4, Tebufenozide 10
[11] = Table 7, ppm: Ipflufenoquin 0.08, Cyflufenamid 0.08, Thiophamate-methyl 2, Iminoctadine acetate 0.0001, Iminoctadine albesilate 0.4, Triflumizole 0.4, Prothioconazole 0.0032, Mefentrifluconazole 0.08, Cymoxanil 0.08, Captan 0.08, Fludioxonil 0.08, Metyltetraprole 0.0032, Florylpicoxamid 0.0006, Fluxapyroxad 0.016, Fluopyram 0.0032, Potassium phosphite 0.016, Fipronil 2, Chlorantraniliprole 0.016
[12] = Table 6, ppm: Ipflufenoquin 10, Cyflufenamid 0.08, Thiophamate-methyl 2, Triflumizole 0.08, Picarbutrazox 0.0016, Prothioconazole 0.0006, Mefentrifluconazole 0.08, Cymoxanil 0.08, Captan 0.08, Fludioxonil 0.016, Metyltetraprole 10, Florylpicoxamid 0.0006, Fluxapyroxad 0.0032, Fluopyram 0.016, Potassium phosphite 0.016, Fipronil 10, Chlorantraniliprole 0.08, Abamectin 2, Sulfoxaflor 0.08, Tebufenoz

Compound | control value, component (II) alone [1, 3] | control value, component (II) alone [1, 4] | control value, component (II) alone [1, 5] | control value, component (II) alone [1, 6] | control value, component (II) alone [1, 7] | growth inhibition rate, component (II) alone [2, 8] | growth inhibition rate, component (II) alone [2, 9] | growth inhibition rate, component (II) alone [2, 10] | growth inhibition rate, component (II) alone [2, 11] | growth inhibition rate, component (II) alone [2, 12]
CCCCCCCCCCCCc1ccc(S(=O)(=O)O)cc1.CCCCCCCCCCCCc1ccc(S(=O)(=O)O)cc1.CCCCCCCCCCCCc1ccc(S(=O)(=O)O)cc1.NC(N)=NCCCCCCCCNCCCCCCCCN=C(N)N [Iminoctadine albesilate] | 50 | 67 | 50 | 67 | 17 | 6% | 81% | 81% | 81% | 
Cc1nc2c(F)c(F)ccc2cc1Oc1cccc(F)c1C(C)(C)O [Ipflufenoquin] | 27 | 27 | 27 | 27 | 27 | 4% | 4% | 4% | 0% | 4%
Cn1nnnc1/C(=N\OCc1cccc(NC(=O)OC(C)(C)C)n1)c1ccccc1 [Picarbutrazox] | 50 | 50 | 50 | 50 | 50 | 0% | 12% | 1% |  | 12%
